Data published in patent US7514443B2, “Substituted pyrazolo[1,5-a]pyrimidines as inhibitors of metabotropic glutamate receptors” (Hoffmann-La Roche Inc., priority 2003, dated 2009).

Assays:
rat mGlu2 receptor = target: T1, rat mGlu2 receptor (Rattus norvegicus, UniProt P31421); experiment: [3H]-LY354740 binding on mGlu2 transfected CHO cell membranes; conditions: inhibition of 10 nM [3H]-LY354740 binding, membranes of mGlu2 transfected CHO cells, room temperature, 1 hour; read-out: mGluR2 Ki
T1 construct: expressed in transfected cells; membranes prepared from them
Excerpt: [^3H]-LY354740 Binding on mGlu2 Transfected CHO Cell Membranes
Transfection and cell culture: cDNA encoding the rat mGlu2 receptor protein in pBluescript II was subcloned into the eukaryotic expression vector pcDNA I-amp from Invitrogen (NV Leek, The Netherlands). This vector construct (pcD1mGR2) was co-transfected with a psvNeo plasmid encoding the gene for neomycin resistance, into CHO cells by a modified calcium phosphate method described by Chen & Okayama (1988). The cells were maintained in Dulbecco's Modified Eagle medium with reduced L-glutamine (2 mM final concentration) and 10% dialyzed foetal calf serum from Gibco BRL (Basel, Switzerland). Selection was made in the presence of G-418 (1000 μg/ml final). Clones were identified by reverse transcription of 5 μg total RNA, follow by PCR using mGlu2 receptor specific primers 5′-[…]-3′ (SEQ ID NO: 1) and 5′-[…]-3′ (SEQ ID NO:2) in 60 mM Tris HCl (pH 10), 15 mM (NH4)2SO4, 2 mM MgCl2, 25 units/ml Taq Polymerase with 30 cycles annealing at 60° C. for 1 min., extension at 72° C. for 30 s, and 1 min. 95° C. denaturation.
Membrane preparation: Cells, cultured as above, were harvested and washed three times with cold PBS and frozen at −80° C. The pellet was resuspended in cold 20 mM HEPES-NaOH buffer containing 10 mM EDTA (pH 7.4), and homogenized with a polytron (Kinematica, AG, Littau, Switzerland) for 10 s at 10 000 rpm. After centrifugation for 30 min. at 4° C., the pellet was washed once with the same buffer, and once with cold 20 mM HEPES-NaOH buffer containing 0.1 mM EDTA, (pH 7.4). Protein content was measured using the Pierce method (Socochim, Lausanne, Switzerland) using bovine serum albumin as standard.
[^3H]-LY354740 binding: After thawing, the membranes were resuspended in cold 50 mM Tris-HCl buffer containing 2 mM MgCl2 and 2 mM CaCl2, (pH 7) (binding buffer). The final concentration of the membranes in the assays was 25 μg protein/ml. Inhibition experiments were performed with membranes incubated with 10 nM [^3H]-LY354740 at room temperature, for 1 hour, in the presence of various concentrations of the compound to be tested. Following the incubations, membranes were filtered onto Whatmann GF/C glass fiber filters and washed 5 times with cold binding buffer. Non specific binding was measured in the presence of 10 μM DCG IV. After transfer of the filters into plastic vials containing 10 ml of Ultima-gold scintillation fluid (Packard, Zürich, Switzerland), the radioactivity was measured by liquid scintillation in a Tri-Carb 2500 TR counter (Packard, Zürich, Switzerland).
Data analysis: The inhibition curves were fitted with a four parameter logistic equation giving IC50 values, and Hill coefficients.

T1 sequence (P31421 19-872): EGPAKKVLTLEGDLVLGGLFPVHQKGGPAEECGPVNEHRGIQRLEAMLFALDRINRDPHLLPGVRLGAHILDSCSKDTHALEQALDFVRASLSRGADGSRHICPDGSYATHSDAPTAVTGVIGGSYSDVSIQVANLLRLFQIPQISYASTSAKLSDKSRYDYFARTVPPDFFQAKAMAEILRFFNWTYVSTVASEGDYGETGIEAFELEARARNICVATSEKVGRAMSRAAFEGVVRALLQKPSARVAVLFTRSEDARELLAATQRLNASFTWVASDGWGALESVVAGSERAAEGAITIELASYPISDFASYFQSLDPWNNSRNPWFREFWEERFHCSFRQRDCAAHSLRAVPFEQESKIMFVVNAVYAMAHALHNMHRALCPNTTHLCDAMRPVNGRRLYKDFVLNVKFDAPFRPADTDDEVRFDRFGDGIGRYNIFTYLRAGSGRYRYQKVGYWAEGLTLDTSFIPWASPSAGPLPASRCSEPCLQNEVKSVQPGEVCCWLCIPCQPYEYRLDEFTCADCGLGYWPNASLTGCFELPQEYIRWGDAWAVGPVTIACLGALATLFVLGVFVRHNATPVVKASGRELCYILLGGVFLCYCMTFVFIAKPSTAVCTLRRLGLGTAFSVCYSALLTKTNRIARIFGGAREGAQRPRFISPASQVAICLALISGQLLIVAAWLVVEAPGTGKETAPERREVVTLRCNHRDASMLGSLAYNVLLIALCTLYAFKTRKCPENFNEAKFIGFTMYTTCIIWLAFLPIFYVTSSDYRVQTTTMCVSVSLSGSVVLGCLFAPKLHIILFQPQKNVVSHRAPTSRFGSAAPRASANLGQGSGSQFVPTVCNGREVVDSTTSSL

| Ki (rat mGlu2 receptor) [nM] | melting point [°C] | SMILES |
| --- | --- | --- |
| 43 | 219 | N#Cc1ncn2c(C(F)(F)F)cc(-c3ccc(Cl)c(Cl)c3)nc12 [Example 5.20, 5-(3,4-Dichloro-phenyl)-7-trifluoromethyl-imidazo[1,5-a]pyrimidine-8-carbonitrile] |
| 43.9 | – | Cc1cc(-c2cc(C(F)(F)F)n3ncc(-c4cc[n+]([O-])c(C)c4)c3n2)ccc1Cl [Example 7.1, 5-(4-Chloro-3-methyl-phenyl)-3-(2-methyl-1-oxy-pyridin-4-yl)-7-trifluoromethyl-pyrazolo[1,5-a]pyrimidine] |
| 45 | 250 | Cc1cc(-c2cnn3c(C(F)(F)F)cc(-c4ccc(C(F)(F)F)c(F)c4)nc23)ccn1 [Example 4.35, 5-(3-Fluoro-4-trifluoromethyl-phenyl)-3-(2-methyl-pyridin-4-yl)-7-trifluoromethyl-pyrazolo[1,5-a]pyrimidine] |
| 48 | 247 | FC(F)(F)COc1ccc(-c2cc(C(F)(F)F)n3ncc(-c4ccncc4)c3n2)cc1C(F)(F)F [Example 4.43, 5-[4-(2,2,2-Trifluorothoxy)-3-trifluoromethyl-phenyl]-3-pyridin-4-yl-7-trifluoromethyl-pyrazolo[1,5-a]pyrimidine] |

Further lines, the molecule ahead of its results:

| SMILES | Ki (rat mGlu2 receptor) [nM] | melting point [°C] |
| --- | --- | --- |
| FC(F)(F)c1cc(-c2ccc(Cl)c(Cl)c2)nc2c(-c3cccnc3)cnn12 [Example 4.9, 5-(3,4-Dichloro-phenyl)-3-pyridin-3-yl-7-trifluoromethyl-pyrazolo[1,5-a]pyrimidine] | 47 | 224 |
| N#Cc1cnn2c(C(F)(F)F)cc(-c3ccc(F)c(C(F)(F)F)c3)nc12 [Example 1.13, 5-(4-Fluoro-3-trifluoromethyl-phenyl)-7-trifluoromethyl-pyrazolo[1,5-a]pyrimidine-3-carbonitrile] | 43 | 204 |
| Cc1cc(-c2cnn3c(C(F)(F)F)cc(-c4cccc(C(F)(F)F)c4)nc23)cc(C)n1 [Example 4.24, 5-(3-Trifluoromethyl-phenyl)-3-(2,6-dimethyl-pyridin-4-yl)-7-trifluoromethyl-pyrazolo[1,5-a]pyrimidine] | 43 | 236 |
| N#Cc1c(-c2ccc(OCC(F)(F)F)c(C(F)(F)F)c2)nn2c(C(F)(F)F)ccnc12 [Example 1.19, 2-(4-Trifluoroethoxy-3-trifluoromethyl-phenyl)-4-trifluoromethyl-pyrazolo[1,5-a]pyrimidine-8-carbonitrile] | 32 | – |
| Cc1nn2c(C(F)(F)F)cc(-c3cccc(C(F)(F)F)c3)nc2c1C#N [Example 2.2, 2-Methyl-5-(3-trifluoromethyl-phenyl)-7-trifluoromethyl-pyrazolo[1,5-a]pyrimidine-3-carbonitrile] | 72 | 215 |
| Cc1cc(-c2cc(C(F)(F)F)n3nc(CC#N)c(C#N)c3n2)ccc1Cl [Example 3.2, 5-(4-Chloro-3-methyl-phenyl)-2-cyanomethyl-7-trifluoromethyl-pyrazolo[1,5-a]pyrimidine-3-carbonitrile] | 76 | 238 |
| Cc1nn2c(C(F)(F)F)cc(-c3ccc(F)c(Cl)c3)nc2c1C#N [Example 2.4, 5-(3-Chloro-4-fluoro-phenyl)-2-methyl-7-trifluoromethyl-pyrazolo[1,5-a]pyrimidine-3-carbonitrile] | – | 196 |
